Assay results from patent publication US4548927A, “Method and agents for raising animal tolerance to oxidant stress-inducing antibiotics” (priority 1983, dated 1985).

Tests used:
[1] = test system: antibiotic-induced damage; conditions: tumor cells and normal host tissues; cited from earlier work
[2] = test system: antibiotic-induced free radical-mediated damage; conditions: humans; cited from earlier work
[3] = Doxorubicin lethality, Balb/c mice; design: species or system Balb/c female mice; conditions: mouse, in vivo
[4] = test system: doxorubicin lethality; test: Effect of lesser doses of methylene blue on doxorubicin toxicity, survival (Example III)
Description: (§1) Mice were obtained from Laboratory Supply Company, Inc., Indianapolis, Indiana. […] The light was maintained between 6:00 in the morning and 6:00 at night, and food and water were freely available. The rooms the mice were maintained in were sound insulated and kept at a constant relative humidity with a temperature ranging between 23° and 25° C. All animals were kept undisturbed except for a weekly cage cleaning, for 21 to 28 days after receipt from the animal supplier and prior to the experimentation. Four mice of the same sex were kept in each cage because of the well-known effects of isolation upon various biologic parameters. […] (See, Levi, F., Halberg, F., Haus, E., Sanchez, S., Sothern, R. B., Halberg, E., Hrushesky, W., Brown, H., Scheving, L. E., and Kennedy, B. J., "Synethetic Adrenocorticotropin for Optimizing Murine Circadian Chronotolerance for Adriamycin", CHRONOBIOLOGIA. 7(#2):227-244 (1980)).
(§2) The anthracycline antibiotic doxorubicin (NDC 38242-874-10, obtained from Adria Laboratories, Inc., Columbus, Ohio) was prepared to a concentration of 2 mg/ml in saline immediately prior to administration to the mice. Administration was by injection either intravenously through a transilluminated tail vein or intraperitoneally. The doxorubicin was administered in an amount per body weight of mouse of 18 mg/kg.
T-tests were used when comparing variances between two groups. When the variance of means were compared among several groups, analysis of variance was used. Multivariate mean analysis was used when comparing groups of individuals sharing common characteristics which were anticipated might possibly affect the outcome of the statistical analysis. […] Chi-square analyses were used to compare survival percentages between and among various treatment groups at appropriate truncation points. Gehan-Wilcoxon Life Table Analyses were used to complement multivariate survival analyses in order to properly weight long-term survivors.

[5] = test system: microsomal systems; conditions: from NADPH and NADH; cited from earlier work
[6] = cited from earlier work
[7] = test system: L1210 leukemia cells; test: Effect of methylene blue on anti-neoplastic activity of doxorubicin (Example IV); format: in vivo, CD2 F1 female mice
Description: A strain of leukemia identified as L1210 was obtained from Arthur Bogden of the E. G. Mason Research Institute Animal and Human Tumor Bank, Worcester, Massachusetts. The tumor was kept in passage in DBA female mice. The tumor used for the below described experiments was between its tenth and twentieth in vivo passage. […] The tumor grows in ascites, which is initially clear and proceeds, within the 24 to 36 hours prior to death, to become hemorrhagic.
Accordingly, it was determined to assess tne anti-tumor efficacy of doxorubicin administered with and without methylene blue. For these studies, 120, 12 to 14 week old female CD2 F1 mice were each given 70,000 live L1210 leukemia cells 4 hours after the lights were turned on in the cages. The mice were then randomly assigned to one of seven treatment groups.

[8] = test system: heart; test: Cardiac evaluation / heart damage score and autopsy, Study No. 1 (Example II); format: in vivo, Balb/c female mice
Description: A pathologist examined the heart of each mouse without prior knowledge of whether the animal received doxorubicin or placebo and methylene blue ur placebo. Cages were inspected twice daily for dead animals and autopsies were done immediately. The animals' hearts were washed in normal saline, fixed in formalin and embedded in glycol methacrylate. One-micron sections were inspected by light microscopy. The condition of the hearts was scored as follows: normal-1; slightly damaged-2; moderately damaged-3; severely damaged-4. Five specific categories or criteria were utilized for this evaluation: vacuolization; myofibrillar and nuclear degeneration; necrosis; interstitial edema; and interstitial inflammation. The numerical scores were averaged for each heart to yield an overall tabulation of damage.
In the course of this study, the cages were inspected twice daily for dead animals, and within twelve hours of death an autopsy was performed upon each animal that died. The heart was excised, inspected, washed in normal saline and fixed in 10% formalin. Upon terminatiun of this study, animals which had received no doxorubicin were killed by cervical dislocation and their hearts were handled in accordance with the procedures outlined earlier above.
Nonetheless, this difference in mean value was not statistically significant at the 5% level (f=2.3, p<0.1 and>0.05).

[9] = test system: hepatic microsomes and heart sarcosomes; conditions: cited from earlier work
[10] = Doxorubicin lethality, CD2 F1 mice; format: in vivo
[11] = test system: doxorubicin lethality; test: Effects of methylene blue on doxorubicin toxicity, survival, Study No. 2 (Example II)
Description: as §1, §2
T-tests were used when comparing variances between two groups. […]

[12] = test system: cellular proteins; test: Examination of tissues after doxorubicin administration; conditions: tissues subsequent to doxorubicin administration
Description: The present inventor has likewise reasoned that the reduction of the oxidant stress-inducing antibiotics may be promoted by interaction with either NADH or NADPH, or their reducing proteins. […] It is therefore possible that the oxidation of NADH or NADPH may occur indirectly by the interaction of the antibiotic with these reducing proteins acting as mediators, either in addition to or in place of a direct interaction between the antibiotic and NADH or NADPH alone.

[13] = test system: doxorubicin lethality; test: Effects of methylene blue on anthracycline toxicity, survival, Study No. 1 (Example II)
[14] = as above; conditions: mouse, in vivo, 18 mg/kg
[15] = test system: cardiac submitochondrial particles; conditions: cited from earlier work
[16] = test system: hepatic GSH; test: Effect of methylene blue on hepatic GSH levels (Example I); format: in vivo, CD2 F1 female mice; conditions: 25 mg methylene blue iv; 4 h; 33 week old; n=9; saline 15.03±4.33; f=6.03, p<0.03
Description: Total glutathione, oxidized and reduced (GSSG and GSH respectively), was determined by a modification of the method of Tietze (Tietze, F., ANAL. BIOCHE., 27:502-522 (1969). GSH was determined by the method of Prins and Loos (Prins, H. K. and Loos, J. A., "In Biochemical Methods in Red Cell Genetics", J. Yunis, ed., Academic Press, New York, (1969)).
Because maintenance of GSH is an NADPH-dependent process, decrements in intracellular NADPH were postulated to lead to a decrease in GSH concentration. […] Hepatic GSH was similarly observed and noted to behave in corresponding fashion.

[17] = previous studies in mice, dogs and humans; cited from earlier work
[18] = in vivo; conditions: mouse, 550 mg/kg

CC(=O)N[C@@H](CS)C(=O)O [N-acetyl cysteine]
protection from antibiotic-induced damage [1]: mixed results

Cc1c(C)c2c(c(C)c1O)CCC(C)(CCCC(C)CCCC(C)CCCC(C)C)O2 (stereo not drawn) [Vitamin E, α-tocopherol]
effect on antibiotic-induced damage at tolerable doses [2]: failed to work at tolerable doses in humans

COc1cccc2c1C(=O)c1c(O)c3c(c(O)c1C2=O)C[C@@](O)(C(=O)CO)C[C@@H]3O[C@H]1C[C@H](N)[C@H](O)[C@H](C)O1 [doxorubicin, 14-hydroxydaunomycin]
mortality at 720 h ([3]; 18 mg/kg ip, 30 days, Balb/c female, read-out: mortality within 30 days, intraperitoneal): 100%
mortality ([3]; 18 mg/kg iv, Balb/c): ~100%
average survival, doxorubicin intraperitoneally ([4]; doxorubicin 18 mg/kg ip, f=27.4, p<0.001): 6.2 ± 0.8 days
average survival, saline placebo ([4]; doxorubicin 18 mg/kg iv or ip plus saline placebo, f=10.8, p<0.001): 7.2 ± 0.6 days
mortality ([4]; doxorubicin 18 mg/kg iv or ip, with methylene blue or saline): All of the mice succumbed to doxorubicin
average survival, doxorubicin intravenously ([4]; doxorubicin 18 mg/kg iv, f=27.4, p<0.001): 11.2 ± 0.6 days
free radical production [5]: causes the production of free radicals
solubility [6]: soluble in water, methanol and other aqueous alcohols but is practically insoluble in acetone, benzene, chloroform, ethyl ether and petroleum ether
survival, doxorubicin and placebo ([7]; 70,000 L1210 cells, doxorubicin and placebo): 14.4 ± 1.2 days
increased life span ([7]; single doxorubicin treatment 3 days after tumor implantation, F=124, p<0.001): 160%
visual appearance of hearts ([8]; animals receiving doxorubicin): often pale and had a patchy fibrotic appearance
most prominent heart finding ([8]; animals which did not receive methylene blue): degeneration of myocytes
pleural fluid, pulmonary consolidation and ascites ([8]; autopsy, animals which had received doxorubicin): often present
heart damage score, without methylene blue ([8]; doxorubicin 18 mg/kg, no methylene blue, normal score=1.0, f=2.3, p<0.1 and >0.05): 2.8±1.3
oxygen consumption [9]: increases oxygen consumption
survival of CD2 F1 relative to Balb/c mice ([10]; 18 mg/kg iv, compared with Balb/c mice): more than 3 times longer
mortality at 720 h ([10]; mouse, in vivo, 18 mg/kg ip, 30 days, CD2 F1, read-out: mortality within 30 days, intraperitoneal): > 80%
mortality ([10]; mouse, in vivo, 18 mg/kg iv, CD2 F1): ~100%
mean survival time, without methylene blue ([11]; doxorubicin 18 mg/kg iv plus placebo, truncated at 130 days, n=7): 85 ± 7 days
complexation with cellular proteins [12]: some complexation
effect of route of administration of doxorubicin ([13]; doxorubicin 18 mg/kg iv vs ip, two-way analysis of variance): no significant effect of the particular route of administration
mortality at 360 h [14]: > 50%
superoxide formation [15]: stimulates superoxide formation

CN(C)c1ccc2nc3ccc(=[N+](C)C)cc-3sc2c1 [methylene blue, methylthionine chloride]
mean hepatic GSH levels [16]: 9.30±5.50 μMol/g protein
average survival, with methylene blue ([4]; doxorubicin 18 mg/kg iv or ip plus methylene blue 25 mg/kg iv, f=10.8, p<0.001): 10.3 ± 1 days
survival, doxorubicin followed by methylene blue ([7]; 70,000 L1210 cells, doxorubicin followed by methylene blue 25 mg/kg iv 30 min after, then sc 1.5-48 h): 14.7 ± 0.5 days
tolerability at 25 mg/kg [17]: well tolerated
pleural fluid, pulmonary consolidation and ascites ([8]; animals killed after saline and/or methylene blue only): never
visual appearance of hearts ([8]; animals not receiving doxorubicin (saline and/or methylene blue)): appeared visually normal
heart damage score, with methylene blue ([8]; doxorubicin 18 mg/kg plus methylene blue iv, normal score=1.0, f=2.3, p<0.1 and >0.05 (not significant)): 1.8±0.9
average survival, with methylene blue ([11]; doxorubicin 18 mg/kg iv plus methylene blue 4 x 25 mg/kg (iv, then ip 1, 3, 6 h), 130 days, n=8, t=4.0, p<0.001): 113 ± 0.5 days
mortality [18]: 50%
survival, methylene blue without doxorubicin ([13]; saline and methylene blue iv, no doxorubicin, study follow-up period): lived throughout the study follow-up period
